From paper PMC10973027 (Molecular Imaging and Biology, 2023)
Several values for one entry are separate records, joined by “and”; a condition that tells them apart may be missing. Equal values may be shown once. Each block holds one compound with its values, some of them ahead of it.

Columns and labels:
[1] = background statement, no reference given; cited from earlier work
[2] = Radio-HPLC metabolite analysis of mouse brain homogenate and plasma after IV radiotracer; type: in vivo, male C57 black 6 mice; settings: for polar metabolites in mouse brain: radio-HPLC column eluent front ~1.5-2 min; for % Parent Plasma / % Parent Brain: individual mice; for % Parent Brain: brain homogenate; for share of total brain activity corresponding to the parent / share of total plasma activity corresponding to the parent: approximate
Protocol: In this preclinical study, two radiolabeling positions were investigated, [^11C-N-CH3]UCB2713 and [^11C]carbonyl UCB2713 ([^11C-CO]UCB2713). The radiolabeling of [^11C-N-CH3]UCB2713 was performed by N-methylation of the corresponding desmethyl precursor with [^11C]methyl iodide and radiolabeling of [^11C-CO]UCB2713 was performed by [^11C]aminocarbonylation of the iodo precursor and the amino precursor with [^11C]carbon monoxide in the presence of Pd(π-cinnamyl) chloride dimer and Xantphos (4,5-bis(diphenylphosphino)-9,9-dimethylxanthene) (Fig. 1b). For additional information on the precursor molecules and radiolabeling methods, see the electronic supplement. A high-performance liquid chromatography (HPLC) metabolite analysis method was developed to quantify the ratio of [^11C-N-CH3]UCB2713 and other unidentified metabolites in plasma and brain homogenate samples. Relative quantification was used to provide the ratio of parent to metabolite in these samples.
Preclinical experiments were conducted on male C57 black 6 mice (N = 10). In vivo experiments were performed on 3 mice and included a PET scan of the brain; ex vivo experiments were performed on all 10 mice and included samples of brain homogenate.
[11C]UCB2713 in vivo/ex vivo Evaluation
Administration of Radioligand and Collecting Samples
Each mouse received an intravenous (IV) bolus injection of [11C]UCB2713 via the jugular vein. The mean (standard deviation [SD]) mass of each radiotracer dose was 1.54 (± 1.03) µg; with a radioactive dose of 17.26 (± 10.88) MBq. At pre-defined time points (40, 60, and 90 min) post-administration of [11C]UCB2713, each mouse was euthanized by exsanguination, followed by cervical dislocation, with blood samples collected in heparin tubes and the brain dissected.
Brain Sample Processing and Preparation of Sample for Analysis
A sample of brain homogenate (1:1, brain:water) was assessed for radioactivity using a γ-counter. Brain homogenate was extracted with a ratio of 1:2 (homogenate:acetonitrile); a ratio of 1:1 was used for the first two animals. The mixture was vortexed for 3 min followed by centrifugation (12000 x g) for 5 min at room temperature. The extraction efficiency was […]
Brain extraction efficiency = counts per minute (CPM) in supernatant (brain extract)/CPM in brain homogenate extracted
To identify the parent-retention time based on the ultraviolet (UV) chromatogram, 20 µL of a solution containing UCB2713 was added to the supernatant (350 µL), followed by 350 µL of 50 mM ammonium formate (adjusted to pH 8), then 0.5 mL of the resulting solution was injected onto the high-performance liquid chromatography (HPLC) column.
Two aliquots of this solution were counted to determine the HPLC recovery as follows:
Recovery efficiency % = = i=1 ∙100 […]
Where “CPM(aliq.)” is the radioactivity measured for the HPLC brain homogenate samples aliquot, “Valiq.” Is the volume of each aliquot , “CPM fi” is the count per minute for fraction “i” and ∑ 30 is the sum of 30 fractions.
Mouse blood samples were centrifuged at 7500 x g for 3 min at 4 °C and plasma was extracted with a ratio of 1:1 (plasma:acetonitrile). The plasma extraction efficiency was […]
Plasma extraction efficiency = CPM in supernatant (plasma extract)/CPM in plasma […]
Samples were prepared as described above for the brain, and two aliquots of solution were counted to determine the HPLC column recovery.
HPLC Procedure and Data Analysis
The HPLC system used a pump, degasser, UV-Vis/Diode Array Detector, and fraction collector. HPLC conditions used were 55% acetonitrile and 45% 100 mM ammonium formate (Method 1), or 48% acetonitrile and 52% 100 mM ammonium formate (adjusted to pH 8; Method 2) as the mobile phase at 5 mL/min and an Agilent XDB-C18 semi-preparative […]
(§1) column (5 micron, 250 x 9.4 mm; Method 2); 30 sample fractions (Method 1) and 36 sample fractions (Method 2) were collected over either a 10- or 12-min run.
A radio-chromatogram was reconstructed from the HPLC fractions collected and the […]

[3] = PET-CT imaging of the mouse brain (time-activity curve, SUV); type: in vivo, male C57 black 6 mice; settings: at 60 min
Protocol: Preclinical experiments were conducted on male C57 black 6 mice (N = 10). In vivo experiments were performed on 3 mice and included a PET scan of the brain; ex vivo experiments were performed on all 10 mice and included samples of brain homogenate. […]
as §1
A radio-chromatogram was reconstructed from the HPLC fractions collected and the percent of unchanged [11C]UCB2713 was calculated:
[11C]UCB2713 parent fraction = i=n i
Where “cCPM fi” is the radioactivity measured for the HPLC fraction, corrected for the background radioactivity. “n” is first and “m” the last HPLC fraction containing the parent compound (1 ≤ n, m ≤ 30 or 36 [where 30 or 36 are the total number of fractions collected]).
PET-Computed Tomography (CT) Scanning and Image Reconstruction
Three mice were euthanized at the 90 min time point following radioligand injection. Prior to euthanization, these mice were scanned by PET-CT. A dynamic PET scan (Siemens Inveon DPET with docked multi-modality CT scanner) was acquired for each anesthetized mouse following IV administration of [11C]UCB2713. PET images were acquired in list mode and reconstructed with increasing time frames over the duration of the scan to characterize radiotracer kinetics. […]

[4] = Safety and tolerability in TM0017 (TEAEs, ECG, vital signs); settings: TM0017, N = 4, IV radiotracer (≤ 10 µg)
Protocol: Other safety variables recorded include changes in 12-lead electrocardiogram (ECG) assessment and changes in vital signs (heart rate, systolic blood pressure, diastolic blood pressure, respiratory rate, and body temperature). Vital signs were measured in supine position following 5 min of rest and clinically significant abnormalities (according to the investigator) were recorded as an AE. All ECG recordings were performed following 5 min of rest in the supine position, in triplicate, with ≥ 1 min between each recording. If any clinically significant abnormalities occurred, an ECG data specialist was to review the recordings.

[5] = Arterial plasma radio-metabolite analysis during PET scans (TM0017); type: in vivo, human
Excerpt: (§2) Arterial input function data were acquired and processed for all PET scans.

[6] = Phase 1 PET-CT brain biodistribution study TM0017 (VT, K1, k2); type: in vivo, human
Protocol: A sample size of 2–10 participants was considered sufficient to meet the objectives, whilst limiting radiation exposure.
The preparation of radiopharmaceuticals and execution of PET-CT scans was performed by radiochemists, physicians, and technologists of Invicro (London, UK). Following local anesthesia, a catheter was inserted into the radial artery by an experienced physician; two venous catheters were also inserted. […] Upon administration, dynamic scanning started immediately and continued for 90 min.
as §2
Anatomical regions of interest (ROI) were defined via nonlinear deformation of a template MR image and associated neuroanatomical atlas, to match individual participants’ MR images. These ROI included, but were not limited to: parietal lobe, occipital lobe, frontal lobe, temporal lobe, striatum, cerebellum, thalamus, and the brain stem. Participants’ PET images were registered to their MR images, enabling the individualized ROI to be applied to the dynamic emission data to generate regional time activity curves (TACs). For additional information on the generation of regional TACs, see the electronic supplement.
Phase 1 PET Study in Healthy Male Participants (TM0017)
The TAC and total plasma data were fitted to a single compartment model to determine the influx and efflux constants K1 and k2. Because the plasma free fraction estimate is imprecise, we elected to fit the model using the total (free and bound) arterial concentration input function. The parameters of this model are related to the analogous parameters which would be estimated using an accurate estimate of the free arterial concentration using the equations below. We were able therefore to determine and present the K1 and estimated whole brain total distribution volume (VT), with relatively good repeatability between patients, and the equations below could also be used to relate the overall mean estimates back to the ideal total brain to free plasma minzasolmin (V’T) and unidirectional extraction Eu which can be calculated using the free fraction. The blood volume in the model was fixed at 5%. In this model, radiotracer which is free in tissue, non-specifically bound and specifically bound (i.e. to a target of interest) are lumped together in a single compartment, and so interchange between those states is assumed to be rapid.
The arterial input function used represents the total concentration of parent radiotracer in plasma, with no correction for plasma protein binding and the fitted and observed K1 from this model is lower than the rate of uptake from the free plasma concentration (K’1):
To calculate the Eu from the observed K1 from the model we then need to combine […]
The partition coefficient between total brain and total plasma concentration was determined from the fitted K1 and k2 parameters: […]
and the ratio of total concentration in brain to free concentration in plasma ( V’T) could be […]
Supplemental Fig. 1. Example of HPLC chromatograms (radioactive trace, top; UV trace, bottom) obtained during HPLC analysis of [11C-N-CH3]UCB2713 dose. The time delay

[7] = mouse, 40 min post-administration
[8] = Cerebellum, Scan 2 (after oral minzasolmin 360 mg)
[9] = Cerebral white matter, Scan 1 (baseline)
[10] = Cerebral white matter, Scan 2 (after oral minzasolmin 360 mg)
[11] = Frontal lobe, Scan 1 (baseline)
[12] = Frontal lobe, Scan 2 (after oral minzasolmin 360 mg)
[13] = Gray matter, Scan 2 (after oral minzasolmin 360 mg)
[14] = Occipital lobe, Scan 1 (baseline)
[15] = Occipital lobe, Scan 2 (after oral minzasolmin 360 mg)
[16] = Parietal lobe, Scan 1 (baseline)
[17] = Parietal lobe, Scan 2 (after oral minzasolmin 360 mg)
[18] = Striatum, Scan 2 (after oral minzasolmin 360 mg)
[19] = Temporal lobe, Scan 1 (baseline)
[20] = Temporal lobe, Scan 2 (after oral minzasolmin 360 mg)
[21] = mixed effects model, after oral minzasolmin 360 mg

SMILES: CCCCC(Cc1c[nH]c2ccccc12)NC(=O)c1cnc(N2CCN(C)CC2)s1 (stereo not drawn) [UCB2713]
rate of metabolism compared with the other enantiomer [1]: higher rate of metabolism

parent fraction in brain tissue ([2]; in-vivo metabolism studies in mice): > 95%
SMILES: CCCC[C@@H](Cc1c[nH]c2ccccc12)N[11C](=O)c1cnc(N2CCN(C)CC2)s1 [[^11C-CO]UCB2713]
polar metabolites in mouse brain [2]: no polar metabolite present in the mouse brain

% Parent Plasma ([2]; 40 min post IV administration): 34.3% and 27.0% and 29.3% and 30.8%
% Parent Plasma ([2]; 60 min post IV administration): 30.6% and 19.5% and 24.6%
% Parent Plasma ([2]; 90 min post IV administration): 9.7% and 26.0% and 17.7%
% Parent Brain ([2]; 40 min post IV administration): 62.0% and 61.1% and 56.0% and 58.2%
% Parent Brain ([2]; 60 min post IV administration): 52.6% and 40.9% and 50.3%
% Parent Brain ([2]; 90 min post IV administration): 34.7% and 29.7% and 22.1%
Kp at 40 min ([2]; male, C57 black 6, mouse, brain/plasma, intravenous, 1.54 µg, mouse, 40 min, read-out: ratio (SD) of parent in the brain versus parent in plasma): 0.77 ± 0.11
Kp at 60 min ([2]; male, C57 black 6, mouse, brain/plasma, intravenous, 1.54 µg, mouse, 60 min, read-out: ratio (SD) of parent in the brain versus parent in plasma): 0.73 ± 0.06
Kp at 90 min ([2]; male, C57 black 6, mouse, brain/plasma, intravenous, 1.54 µg, mouse, 90 min, read-out: ratio (SD) of parent in the brain versus parent in plasma): 0.79 ± 0.69
share of total brain activity corresponding to the parent [2, 7]: approximately 60%
share of total plasma activity corresponding to the parent [2, 7]: approximately 30%
share of total brain activity corresponding to the parent ([2]; mouse, 90 min): approximately 30%
share of total plasma activity corresponding to the parent ([2]; mouse, 90 min): ~20%
standard uptake volume (SUV), whole brain [3]: ~ 0.2
SMILES: CCCC[C@@H](Cc1c[nH]c2ccccc12)NC(=O)c1cnc(N2CCN([11CH3])CC2)s1 [[^11C-N-CH3]UCB2713]
polar metabolites in mouse brain [2]: significant contribution of brain activity from polar metabolites

SMILES: CCCC[C@H](Cc1c[nH]c2ccccc12)NC(=O)c1cnc(N2CCN([11CH3])CC2)s1 [[^11C]minzasolmin]
Any TEAEs [4]: 3 (75) n (%)
Deaths [4]: 0 n (%)
Discontinuations due to TEAEs [4]: 0 n (%)
Drug-related TEAEs [4]: 0 n (%)
Serious TEAEs [4]: 0 n (%)
Severe TEAEs [4]: 0 n (%)
TEAEs of special interest [4]: 0 n (%)
radioactivity in plasma attributable to intact parent radiotracer ([5]; human arterial plasma, at 90 min): ~ 50%
total parent fraction during the radiotracer brain uptake phase ([5]; human plasma, up to 30 min): > 70%
K1 ([6]; Cerebellum, Scan 1 (baseline)): 0.02 mL/cm^3/min
VT ([6]; Cerebellum, Scan 1 (baseline)): 0.522 mL/cm^3
K1 [6, 8]: 0.018 mL/cm^3/min
VT [6, 8]: 0.499 mL/cm^3
K1 [6, 9]: 0.008 mL/cm^3/min
VT [6, 9]: 0.469 mL/cm^3
K1 [6, 10]: 0.007 mL/cm^3/min
VT [6, 10]: 0.523 mL/cm^3
K1 [6, 11]: 0.017 mL/cm^3/min
VT [6, 11]: 0.539 mL/cm^3
K1 [6, 12]: 0.014 mL/cm^3/min
VT [6, 12]: 0.539 mL/cm^3
K1 ([6]; Gray matter, Scan 1 (baseline)): 0.017 mL/cm^3/min
VT ([6]; Gray matter, Scan 1 (baseline)): 0.547 mL/cm^3
K1 [6, 13]: 0.015 mL/cm^3/min
VT [6, 13]: 0.542 mL/cm^3
K1 [6, 14]: 0.019 mL/cm^3/min
VT [6, 14]: 0.548 mL/cm^3
K1 [6, 15]: 0.017 mL/cm^3/min
VT [6, 15]: 0.555 mL/cm^3
K1 [6, 16]: 0.017 mL/cm^3/min
VT [6, 16]: 0.551 mL/cm^3
K1 [6, 17]: 0.015 mL/cm^3/min
VT [6, 17]: 0.574 mL/cm^3
VT before and after dosing with minzasolmin 360 mg ([6]; Scan 1 vs Scan 2): no difference in VT
K1 ([6]; Striatum, Scan 1 (baseline)): 0.015 mL/cm^3/min
VT ([6]; Striatum, Scan 1 (baseline)): 0.545 mL/cm^3
K1 [6, 18]: 0.013 mL/cm^3/min
VT [6, 18]: 0.528 mL/cm^3
K1 [6, 19]: 0.017 mL/cm^3/min
VT [6, 19]: 0.566 mL/cm^3
K1 [6, 20]: 0.015 mL/cm^3/min
VT [6, 20]: 0.557 mL/cm^3
overall mean brain influx rate (K1) ([6]; across each participant and all ROI, from total plasma concentrations): 0.015 mL/cm^3/min
qualitative assessment of the PET images ([6]; following radiotracer injections): distributed throughout the brain
mean difference in VT between Scan 1 and Scan 2 ([6]; least squares mean of mixed model over all regions and participants): -0.008 mL/cm^3
change in K1 after oral dosing [6, 21]: -15.9%
change in k2 after oral dosing [6, 21]: -9.3%

SMILES: CCCC[C@@H](Cc1c[nH]c2ccccc12)N[11C](=O)c1cnc(N2CCNCC2)s1 [desmethyl-[^11C-CO]UCB2713]
amount of desmethyl metabolite observed in mouse brain ([2]; radio-HPLC of brain homogenate after [11C-CO]UCB2713): ~ 2%
